Results reported in article PMC8273887 (Journal of Medicinal Chemistry, 2021).

Legend:
human erythrocytes = assay: Hemolysis analysis; format: cell-based; conditions: 1 h, 37 °C, absorbance 405 nm, 0.2–25 μM final concentration, two independent experiments
Text: Considering the therapeutic potential of TFF3, it was important to determine any cytotoxic and hemolytic effects early on to avoid problems in later stages of drug development. We therefore assessed cytotoxicity on HEK-293 cells and hemolytic effects in human erythrocytes. We treated the cells with TFF3(C^57Acm) and TFF3 homodimer and used resazurin, a blue dye that produces strong fluorescence when reduced by living cells, as the readout of the number of viable cells.[60] In the hemolytic assay, we evaluated hemoglobin release, an indicator of erythrocyte lysis, upon exposure to the peptides.
Monomeric and homodimeric TFF3 were serially diluted twofold in 0.9% NaCl and seeded (25 μL) in a 384-well polypropylene plate (0.2–25 μM final concentration). […] The cells were counted using a Neubauer hemocytometer and then diluted to 1 × 10^8/mL in 0.9% NaCl. […] Following incubation, the plates were centrifuged at 1000g for 10 min to pellet cells and debris and then 25 μL of the supernatant was transferred into a 384-well flat-bottom PS plate and absorbance (Abs) was read at 405 nm using a Tecan M1000 Pro monochromator plate reader. Percent hemolysis was calculated using the following equation: Hemolysis (%) = (Abssample – Absnegative/Abspositive – Absnegative) × 100. […]

[1] = Stability in simulated gastric fluid (SGF); format: in vitro ADME, porcine; conditions: simulated gastric fluid (SGF) with pepsin, pH 1.3, 15 μL of 1 mM peptide stock in 285 μL SGF, 37 °C, samples 0 min-24 h quenched with 0.2 M Na2CO3, RP-HPLC/LC-MS peak area as % of time 0, exponential one-phase decay fit, read-out: t1/2 in SGF
Description: (§1) We exposed TFF3(C^57Acm) and TFF3 homodimer to simulated gastric fluid (SGF, containing pepsin, pH 1.3) and simulated intestinal fluid (SIF, containing pancreatic enzymes, pH 6.8), and monitored the mixture over 24 h by analytical RP-HPLC and MS. The N- and C-termini of TFF3 and its homodimer were readily truncated in both SGF and SIF (Figure 4A,B). In SGF, TFF3 was cleaved at Leu^6/Ser^7 followed by cleavage at Glu^54/Ala^55 (t1/2 < 5 min). In SIF, TFF3 was cleaved first at Thr^58/Phe^59 followed by cleavage at Leu^6/Ser^7, Glu^56/Cys^57, and Ala^55/Glu^56 (t1/2 < 5 min). TFF3 homodimer, in both SGF (t1/2 ∼ 40 min) and SIF (t1/2 < 5 min), was first broken down to monomeric TFF3 through simultaneous cleavage at Leu^6 and Glu^54 or Ala^55, eventually leading to the same metabolites as TFF3 (Figure 4B).
(§2) Simulated gastric fluid (SGF) was prepared by dissolving 20 mg of NaCl and 8 mg of pepsin in 70 μL of concentrated HCl (32%), and the volume was diluted to 10 mL with Milli-Q water (pH 1.3).[76],[77] Simulated intestinal fluid (SIF) was prepared by dissolving 68 mg of KH2PO4 in 500 μL of Milli-Q water followed by the addition of 800 μL of 0.2 M NaOH and 100 mg of porcine pancreatin, and the volume was adjusted to 10 mL with Milli-Q water (pH 6.8).[76],[77] Peptide stock solution (1 mM; 15 μL) was added to SGF (285 μL) or SIF (285 μL) and incubated at 37 °C. Samples (30 μL) from SGF and SIF were taken at 0, 5, 15, and 30 min and 1, 2, 4, 8, and 24 h timepoints and subsequently quenched with 30 μL of 0.2 M Na2CO3 (SGF) or 30 μL of 5% aqueous TFA (SIF). The samples were analyzed by analytical RP-HPLC (30 μL) and/or LC-MS (20 μL). The amount of peptide remaining was determined by measuring the peak area and expressing it as a % of the peak area at time 0. Peptide half-life (t1/2) was determined from the peptide degradation profiles using an exponential one-phase decay fit in Prism (version 7, GraphPad, La Jolla). LC-MS analysis was performed in a Q-Star Pulsar mass spectrometer (SCIEX, Ontario, Canada), and the raw data spectra were processed using the peptide reconstruction tool in the BioAnalyst software to identify the mass of the metabolites. The stability of the disulfide bonds was assessed through incubation of the peptides (10 μM) with 10 equiv of reduced glutathione (GSH; 100 μM) in sodium phosphate (50 mM) buffer at pH 7.2. Samples were taken at timepoints 0, 4, 8, and 24 h, quenched by adding 10% TFA, and analyzed by analytical RP-HPLC using an analytical C3 column (Agilent Zorbax SB-C3, 5 μm, 2.1 mm × 250 mm, 300 Å).

[2] = Stability in simulated intestinal fluid (SIF); format: in vitro ADME; conditions: pig, simulated intestinal fluid (SIF) with porcine pancreatin, pH 6.8, 15 μL of 1 mM peptide stock in 285 μL SIF, 37 °C, samples 0 min-24 h quenched with 5% aqueous TFA, RP-HPLC/LC-MS peak area as % of time 0, exponential one-phase decay fit, read-out: t1/2 in SIF
Description: as §1, §2

CXCR4 = biological target: T1, CXCR4 (Homo sapiens, UniProt P61073); assay: Inositol 1 phosphate (IP1) accumulation assay (HTRF) in COS-7 cells transfected with CXCR4; format: cell-based; conditions: 5 min preincubation with peptide (1 or 10 μM final), then CXCL12 10^-12 to 10^-5 M; COS-7/CXCR4; IP1 HTRF
T1 construct: expressed in transfected cells; host or cells: COS-7 (African green monkey), transient co-transfection with GαΔ6qi4myr
Text: CXCR4 is a member of the G protein-coupled receptor (GPCR) family[58] and proposed as a target receptor for TFF3 to mediate wound healing.[30],[39] We therefore pharmacologically characterized TFF3(C^57Acm) and TFF3 homodimer at CXCR4. We used a chimeric Gαiq protein to switch the pathway to the Gαq signaling, which leads to the activation of the phospholipase and allows measurement of CXCR4 activation through the production of inositol 1 phosphate (IP1).[61]−[63] We measured IP1 accumulation upon stimulation with TFF3(C^57Acm) and TFF3 homodimer in fibroblast-like COS-7 cells transiently transfected with CXCR4.[58] This is a competitive immunoassay, based on the HTRF technology, where native IP1 produced by cells compete with labeled IP1 (acceptor) for binding to anti-IP1-cryptate (donor). The specific signal (i.e., Förster resonance energy transfer, FRET) is inversely proportional to the concentration of IP1 in the sample. The calculation of the fluorescence ratio eliminates possible medium interferences.[64]
COS-7 cells (fibroblast-like cells from African green monkey) were transiently co-transfected with the CXCR4 C-terminally fused to eYFP in pVitro2 vector and the untagged chimeric G protein GαΔ6qi4myr in pcDNA3.1 plasmid using Metafectene Pro according to manufacturer’s protocol. The cells were cultured in DMEM with higher glucose and supplemented with 10% FCS without any antibiotics at 37 °C and 5% CO2 in 95% humidity. Cisbio IP-One Gq assay kit was used according to previous description with minor modifications to measure activity.[80] Briefly, a standard curve was prepared in HBSS (Hanks’ balanced salt solution) with 20 mM LiCl to determine the linear range of the assay and 10 000 cells/well were cultured overnight in a 384-well flat white plate (Greiner Bio-one GmbH, Frickenhausen, Germany). TFF3 and its homodimer as well as CXCL12 were diluted in HBSS containing 20 mM LiCl. Stimulation was carried out for 1 h in triplicate at 37 °C. Subsequently, 3 μL of IP1-d2 and 3 μL of Ab-cryptate in lysis buffer were added to the wells and incubated on a tumbler for 60 min at 25 °C. Fluorescence was then measured at 620 and 665 nm and the HTRF (homogeneous time-resolved fluorescence) ratio (665/620 nm) was calculated. Data analysis was performed with Prism (version 7, GraphPad, La Jolla). Tested compounds were normalized to CXCL12 wild type, with the highest HTRF ratio set to 0% and the lowest HTRF ratio set to 100% response. […] The final concentration range of 10^–12 to 10^–5 M to CXCL12 and 1 or 10 μM to TFF3(C^57Acm) and TFF3 homodimer was achieved by adding the compounds from a threefold concentrated stock solution.

[3] = biological target: chemokine receptor type 4 (CXCR4), C-terminally fused to eYFP (UniProt P61073)
Sequence of chemokine receptor type 4 (CXCR4), C-terminally fused to eYFP (P61073 whole entry, the tested form may be a part): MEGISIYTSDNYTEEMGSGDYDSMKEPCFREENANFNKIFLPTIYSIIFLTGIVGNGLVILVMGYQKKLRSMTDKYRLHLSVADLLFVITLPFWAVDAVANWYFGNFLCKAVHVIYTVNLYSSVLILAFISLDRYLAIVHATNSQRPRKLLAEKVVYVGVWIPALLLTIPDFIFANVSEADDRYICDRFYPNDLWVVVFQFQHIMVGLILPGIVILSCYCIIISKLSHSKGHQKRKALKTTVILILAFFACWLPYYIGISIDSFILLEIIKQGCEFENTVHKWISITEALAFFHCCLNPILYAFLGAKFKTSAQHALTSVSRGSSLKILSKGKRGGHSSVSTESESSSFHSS

Sequence of C-X-C motif chemokine 12 (CXCL12), recombinant human, with an additional N-terminal methionine (P48061 other isoform, or with tags, fused parts or gaps): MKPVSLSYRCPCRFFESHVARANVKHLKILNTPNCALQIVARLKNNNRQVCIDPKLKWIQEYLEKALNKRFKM
T1 sequence (P61073 whole entry): as the sequence (P61073 whole entry, the tested form may be a part) above

| EC50 of IP1 accumulation (HTRF, IP-One Gq kit) in COS-7 cells transfected with CXCR4 and a chimeric G protein; CXCL12 10^-12 to 10^-5 M [3] | Molecule | concentration up to which no hemolytic effect was displayed (human erythrocytes) | half-life at 50 μM [1] | half-life at 50 μM [2] | effect on the EC50 of CXCL12 at CXCR4 (antagonism) (CXCR4) |
| --- | --- | --- | --- | --- | --- |
| – | CC[C@H](C)[C@@H]1NC(=O)[C@H](CCCNC(=N)N)NC(=O)[C@H](CO)NC(=O)[C@H](CC(=O)O)NC(=O)[C@H](Cc2ccccc2)NC(=O)[C@@H]2CSSC[C@H](NC(=O)[C@H](CCC(N)=O)NC(=O)[C@H](CC(N)=O)NC(=O)[C@H](C)NC(=O)[C@H](CO)NC(=O)[C@H](CC(C)C)NC(=O)CNC(=O)[C@@H](NC(=O)[C@H](Cc3ccc(O)cc3)NC(=O)[C@H](CCC(=O)O)NC(=O)[C@@H](N)CCC(=O)O)C(C)C)C(=O)N[C@@H](C)C(=O)N[C@@H](C(C)C)C(=O)N3CCC[C@H]3C(=O)N[C@@H](C)C(=O)N[C@@H](CCCCN)C(=O)N[C@@H](CC(=O)O)C(=O)N[C@@H](CCCNC(=N)N)C(=O)N[C@@H](C(C)C)C(=O)N[C@@H](CC(=O)O)C(=O)N[C@H]3CSSC[C@H](NC(=O)CNC(=O)[C@H](CCCNC(=N)N)NC(=O)[C@H](CC(N)=O)NC(=O)[C@H](CC(N)=O)NC(=O)[C@H](CSSC[C@@H](C(=O)N[C@@H](Cc4ccccc4)C(=O)N[C@@H](CCCCN)C(=O)N4CCC[C@H]4C(=O)N[C@@H](CC(C)C)C(=O)N[C@@H](CCC(N)=O)C(=O)N[C@@H](CCC(=O)O)C(=O)N[C@@H](C)C(=O)N[C@@H](CCC(=O)O)C(=O)N[C@@H](CSSC[C@H](NC(=O)[C@H](CCC(=O)O)NC(=O)[C@H](C)NC(=O)[C@H](CCC(=O)O)NC(=O)[C@H](CCC(N)=O)NC(=O)[C@H](CC(C)C)NC(=O)[C@@H]4CCCN4C(=O)[C@H](CCCCN)NC(=O)[C@H](Cc4ccccc4)NC(=O)[C@@H]4CSSC[C@@H]5NC(=O)[C@H](CCC(=O)O)NC(=O)[C@H](CCCCN)NC(=O)[C@@H]6CCCN6C(=O)[C@H]([C@@H](C)O)NC(=O)[C@H](C(C)C)NC(=O)[C@H](Cc6c[nH]cn6)NC(=O)[C@@H]6CCCN6C(=O)[C@H](Cc6ccc(O)cc6)NC(=O)CNC(=O)[C@@H]6CSSC[C@H](NC(=O)CNC(=O)[C@H](CCCNC(=N)N)NC(=O)[C@H](CC(N)=O)NC(=O)[C@H](CC(N)=O)NC5=O)C(=O)N[C@@H](CSSC[C@H](NC(=O)[C@H](CCC(N)=O)NC(=O)[C@H](CC(N)=O)NC(=O)[C@H](C)NC(=O)[C@H](CO)NC(=O)[C@H](CC(C)C)NC(=O)CNC(=O)[C@@H](NC(=O)[C@H](Cc5ccc(O)cc5)NC(=O)[C@H](CCC(=O)O)NC(=O)[C@@H](N)CCC(=O)O)C(C)C)C(=O)N[C@@H](C)C(=O)N[C@@H](C(C)C)C(=O)N5CCC[C@H]5C(=O)N[C@@H](C)C(=O)N[C@@H](CCCCN)C(=O)N[C@@H](CC(=O)O)C(=O)N[C@@H](CCCNC(=N)N)C(=O)N[C@@H](C(C)C)C(=O)N[C@@H](CC(=O)O)C(=O)N6)C(=O)N[C@@H](Cc5ccccc5)C(=O)N[C@@H](CC(=O)O)C(=O)N[C@@H](CO)C(=O)N[C@@H](CCCNC(=N)N)C(=O)N[C@@H]([C@@H](C)CC)C(=O)N5CCC[C@H]5C(=O)NCC(=O)N[C@@H](C(C)C)C(=O)N5CCC[C@H]5C(=O)N[C@@H](Cc5c[nH]c6ccccc56)C(=O)N4)C(=O)N[C@H](C(=O)N[C@@H](Cc4ccccc4)C(=O)O)[C@@H](C)O)C(=O)N[C@H](C(=O)N[C@@H](Cc4ccccc4)C(=O)O)[C@@H](C)O)NC(=O)[C@H](Cc4c[nH]c5ccccc45)NC(=O)[C@@H]4CCCN4C(=O)[C@H](C(C)C)NC(=O)CNC(=O)[C@@H]4CCCN4C1=O)NC(=O)[C@H](CCC(=O)O)NC(=O)[C@H](CCCCN)NC(=O)[C@@H]1CCCN1C(=O)[C@H]([C@@H](C)O)NC(=O)[C@H](C(C)C)NC(=O)[C@H](Cc1c[nH]cn1)NC(=O)[C@@H]1CCCN1C(=O)[C@H](Cc1ccc(O)cc1)NC(=O)CNC3=O)C(=O)N2 [TFF3 homodimer] | > 25 µM | ~40 min | < 5 min | not affected |
| 5.9 nM | C-X-C motif chemokine 12 (CXCL12), recombinant human, with an additional N-terminal methionine (from UniProt P48061 22-93) (ligand) | – | – | – | – |
